Tested on: cynomolgus monkeys
Experiment: Effects on cardiac function in anesthetized cynomolgus monkeys
Type: in vivo, cynomolgus monkey
Conditions: continuous intravenous 30 min
Method: Cynomolgus monkeys were anesthetized with pentobarbital (at an initial dose of 20-30 mg/kg by intravenous administration; at a dose of 4-5 mg/kg/hr by intravenous continuous administration). A tracheal tube was inserted and experiments were carried out under artificial respiration (fresh air+pure oxygen, ventilatory volume: 10-15 mL/kg, ventilation frequency: 10-15 times/min). In the right lying position, the left thorax was opened between the fourth and fifth intercostal spaces. The […] (the origin of the left anterior descending artery or circumflex branch) and the origin of the ascending main artery were peeled off and transducers for blood flow measurement were located there. The blood flow rates were measured using an electronic blood flowmeter or an ultrasonic blood flowmeter. The blood pressures were measured using a pressure transducer in a state where a catheter was inserted into the right femoral artery. The left ventricular internal pressure was measured in a state where a catheter was inserted from the left carotid artery into the left ventricle. The electrocardiogram was measured using needle electrodes installed in the right armpit and the left thorax. After catheters for administration were inserted into the right and left cephalic veins and femoral veins, the test compound, pentobarbital (under anesthesia) or an aqueous solution (SOLITA T3 containing 1.2% NaHCO3) were administered therethrough. The test compound was continuously administered intravenously 30 min using a continuous infusion system. The blood pressure, left ventricular internal pressure, blood flow rate through the coronary artery and electrocardiogram data were simultaneously inputted to a PowerLab system (LabChart6, AD instruments) to measure/calculate average blood pressure, heart rate, average blood flow rate through the coronary artery, beat volume, stroke volume (beat volume/heart rate), maximum first deviation of the left ventricular internal pressure, total peripheral blood vessel resistance (average blood pressure/beat volume), cardiac performance (average blood pressure x beat volume) and double product (systolic arterial pressure x heart rate), which is indicative of myocardial oxygen consumption.
The averages of all evaluation parameters for 1 min were obtained before administration, immediately after administration, and 10 min, 20 min and 30 min after administration, and changes of the averages relative to the value measured before administration which is defined as 100% were calculated.

cardiac performance (30 ng/kg/min): did not affect
double product (30 ng/kg/min): did not affect
cardiac performance (100 ng/kg/min): did not affect
double product (100 ng/kg/min): did not affect
other cardiac function parameters, including the blood flow rate through the coronary artery: did not affect
Structure (SMILES): C[C@@](O)(C/C=C/[C@H]1CCC(=O)[C@@H]1CCSc1nc(C(=O)O)cs1)CCC(F)=C(F)F [Compound 17, 2-[(2-{(1R,5R)-2-oxo-5-[(1E,4S)-7,8,8-trifluoro-4-hydroxy-4-methyl-1,7-octadien-1-yl]cyclopentyl}ethyl)thio]-1,3-thiazole-4-carboxylic acid]

From patent US9150528B2, “Compound having detrusor muscle-contracting activity and urethral sphincter muscle-relaxing activity” (ONO PHARMACEUTICAL CO., LTD., priority 2009, dated 2015)
